Patent publication US12539292B2, “BRM targeting compounds and associated methods of use” (Arvinas Operations, Inc., priority 2018, dated 2026)
Read-outs that look alike come from different tables or passages of the source.

Biological target: T1, BRM (Homo sapiens, UniProt P51531)
T1 construct: In-Cell Western Screen of BRM Degradation in SW1573 Cells; endogenous in cells; host or cells: SW1573
Assay: In-cell Western screen of BRM degradation in SW1573 cells (Dmax and DC50)
Assay type: cell-based
How it was run: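 After adhering overnight, cells received compound for 18-20 hours. They were then washed in cold DPBS, fixed with 4% PFA for 20 min and permeabilized for 30 min. Blocking and fluorescent secondary staining followed before imaging.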

[1] = BRM degradation, SW1573 cells, read-out: DC50
[2] = SW1573, % degraded, when tested at the top concentration of between 0.3 and 10 μM, read-out: BRM Dmax (%)
[3] = degradation of BRM, read-out: BRM DC50
[4] = BRM degradation, read-out: BRM DC50

T1 sequence (P51531 whole entry): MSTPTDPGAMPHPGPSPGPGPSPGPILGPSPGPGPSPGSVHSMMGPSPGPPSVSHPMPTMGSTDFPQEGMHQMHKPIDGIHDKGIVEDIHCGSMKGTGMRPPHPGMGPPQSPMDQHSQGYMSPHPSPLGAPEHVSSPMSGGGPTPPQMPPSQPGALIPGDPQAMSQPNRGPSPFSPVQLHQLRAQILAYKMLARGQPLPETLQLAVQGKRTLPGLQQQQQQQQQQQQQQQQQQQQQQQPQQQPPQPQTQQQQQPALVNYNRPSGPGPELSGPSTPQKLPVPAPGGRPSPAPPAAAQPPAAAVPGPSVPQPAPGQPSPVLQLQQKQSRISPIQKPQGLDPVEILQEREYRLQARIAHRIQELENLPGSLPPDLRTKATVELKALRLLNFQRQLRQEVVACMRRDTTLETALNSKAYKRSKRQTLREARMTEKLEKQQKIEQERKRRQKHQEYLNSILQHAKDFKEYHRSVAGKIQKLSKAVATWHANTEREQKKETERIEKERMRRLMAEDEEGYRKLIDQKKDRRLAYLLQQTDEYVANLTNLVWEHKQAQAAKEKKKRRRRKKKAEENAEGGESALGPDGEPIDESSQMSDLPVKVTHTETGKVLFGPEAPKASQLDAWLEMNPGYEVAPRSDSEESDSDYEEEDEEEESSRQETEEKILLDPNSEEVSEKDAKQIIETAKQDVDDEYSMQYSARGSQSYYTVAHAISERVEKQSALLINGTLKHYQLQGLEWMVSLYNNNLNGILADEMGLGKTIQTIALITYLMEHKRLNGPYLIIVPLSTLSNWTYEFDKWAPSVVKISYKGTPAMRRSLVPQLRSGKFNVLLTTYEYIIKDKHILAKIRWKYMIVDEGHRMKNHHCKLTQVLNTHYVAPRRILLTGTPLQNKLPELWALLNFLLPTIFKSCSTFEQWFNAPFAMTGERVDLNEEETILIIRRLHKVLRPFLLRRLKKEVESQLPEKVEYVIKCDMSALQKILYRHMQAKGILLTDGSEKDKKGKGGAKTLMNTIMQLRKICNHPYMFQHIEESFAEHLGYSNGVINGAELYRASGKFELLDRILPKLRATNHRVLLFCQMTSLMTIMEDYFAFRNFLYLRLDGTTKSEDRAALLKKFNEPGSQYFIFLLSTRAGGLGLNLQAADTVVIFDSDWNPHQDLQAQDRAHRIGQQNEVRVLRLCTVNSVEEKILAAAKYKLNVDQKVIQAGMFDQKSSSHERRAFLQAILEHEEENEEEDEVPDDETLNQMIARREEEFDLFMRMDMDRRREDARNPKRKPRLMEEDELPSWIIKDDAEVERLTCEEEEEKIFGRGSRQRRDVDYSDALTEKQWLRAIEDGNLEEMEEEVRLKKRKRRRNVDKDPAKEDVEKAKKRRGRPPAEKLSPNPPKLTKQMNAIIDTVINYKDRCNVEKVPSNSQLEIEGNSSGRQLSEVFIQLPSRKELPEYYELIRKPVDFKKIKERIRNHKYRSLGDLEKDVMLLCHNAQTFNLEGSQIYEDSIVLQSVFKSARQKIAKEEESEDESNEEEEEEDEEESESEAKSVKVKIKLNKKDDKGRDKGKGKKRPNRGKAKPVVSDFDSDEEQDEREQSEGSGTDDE

Row | SMILES | DC50 [1] | Dmax [2] | also measured
1 | Cc1ncsc1-c1ccc([C@H](C)NC(=O)[C@@H]2C[C@@H](O)CN2C(=O)[C@H](c2cc(N3CCC4(CCN(CC5CCN(C[C@H]6C[C@H](Oc7cc(N8C9CCC8CN(c8cc(-c%10ccccc%10O)nnc8N)C9)ccn7)C6)CC5)CC4)CC3)no2)C(C)C)cc1 [compound 688, (2S,4R)-1-((2S)-2-(3-(9-((1-(((1r,3r)-3-((4-(3-(3-amino-6-(2-hydroxyphenyl)pyridazin-4-yl)-3,8-diazabicyclo[3.2.1]octan-8-yl)pyridin-2-yl)oxy)cyclobutyl)methyl)piperidin-4-yl)methyl)-3,9-diazaspiro[5.5]undecan-3-yl)isoxazol-5-yl)-3-methylbutanoyl)-4-hydroxy-N-((S)-1-(4-(4-methylthiazol-5-yl)phenyl)ethyl)pyrrolidine-2-carboxamide] | > 30 nM |  | 
2 | Cc1ncsc1-c1ccc([C@H](C)NC(=O)[C@@H]2C[C@@H](O)CN2C(=O)[C@@H](c2cc(N3CCN(CCN4CCC(O[C@H]5C[C@H](Oc6cc(N7C8CCC7CN(c7cc(-c9ccccc9O)nnc7N)C8)ccn6)C5)CC4)CC3)no2)C(C)C)cn1 [compound 402, (2S,4R)-1-((2R)-2-(3-(4-(2-(4-((1r,3r)-3-((4-(3-(3-amino-6-(2-hydroxyphenyl)pyridazin-4-yl)-3,8-diazabicyclo[3.2.1]octan-8-yl)pyridin-2-yl)oxy)cyclobutoxy)piperidin-1-yl)ethyl)piperazin-1-yl)isoxazol-5-yl)-3-methylbutanoyl)-4-hydroxy-N-((S)-1-(6-(4-methylthiazol-5-yl)pyridin-3-yl)ethyl)pyrrolidine-2-carboxamide] |  | > 75% | DC50 [3]: < 2.5 nM
3 | Cc1ncoc1-c1ccc([C@H](C)NC(=O)[C@@H]2C[C@@H](O)CN2C(=O)[C@H](c2cc(OCCN3CCN(CCOc4cc(N5C6CCC5CN(c5cc(-c7ccccc7O)nnc5N)C6)ccn4)CC3)no2)C(C)C)cc1 [compound 299, (2S,4R)-1-((2S)-2-(3-(2-(4-(2-((4-(3-(3-amino-6-(2-hydroxyphenyl)pyridazin-4-yl)-3,8-diazabicyclo[3.2.1]octan-8-yl)pyridin-2-yl)oxy)ethyl)piperazin-1-yl)ethoxy)isoxazol-5-yl)-3-methylbutanoyl)-4-hydroxy-N-((S)-1-(4-(4-methyloxazol-5-yl)phenyl)ethyl)pyrrolidine-2-carboxamide] | > 30 nM |  | 
4 | Cc1cc([C@@H](C(=O)N2C[C@H](O)C[C@H]2C(=O)N[C@@H](C)c2ccc(-c3scnc3C)cc2)[C@@H](C)COCCCOc2cc(N3C4CCC3CN(c3cc(-c5ccccc5O)nnc3N)C4)ccn2)on1 [compound 494, (2S,4R)-1-((2S,3R)-4-(3-((4-(3-(3-amino-6-(2-hydroxyphenyl)pyridazin-4-yl)-3,8-diazabicyclo[3.2.1]octan-8-yl)pyridin-2-yl)oxy)propoxy)-3-methyl-2-(3-methylisoxazol-5-yl)butanoyl)-4-hydroxy-N-((S)-1-(4-(4-methylthiazol-5-yl)phenyl)ethyl)pyrrolidine-2-carboxamide] |  | > 75% | DC50 [4]: < 2.5 nM
5 | Cc1ncsc1-c1ccc([C@H](C)NC(=O)[C@@H]2C[C@@H](O)CN2C(=O)[C@H](c2cc(OCCC3CCN(C[C@H]4C[C@H](Oc5cc(N6C7CCC6CN(c6cc(-c8ccccc8O)nnc6N)C7)ccn5)C4)CC3)no2)C(C)C)c(F)c1F [compound 587, (2S,4R)-1-((2S)-2-(3-(2-(1-(((1r,3S)-3-((4-(3-(3-amino-6-(2-hydroxyphenyl)pyridazin-4-yl)-3,8-diazabicyclo[3.2.1]octan-8-yl)pyridin-2-yl)oxy)cyclobutyl)methyl)piperidin-4-yl)ethoxy)isoxazol-5-yl)-3-methylbutanoyl)-N-((S)-1-(2,3-difluoro-4-(4-methylthiazol-5-yl)phenyl)ethyl)-4-hydroxypyrrolidine-2-carboxamide] |  |  | DC50 (BRM degradation, SW1573 cells, Table 2D, read-out: *DC50): > 30 nM
6 | Cc1ncoc1-c1ccc([C@H](C)NC(=O)[C@@H]2C[C@@H](O)CN2C(=O)[C@H](c2cc(OCCN3CCN(CCOc4cc(N5C6CCC5CN(c5cc(-c7ccccc7O)nnc5N)C6)ccn4)CC3)no2)C(C)C)cn1 [compound 161, (2S,4R)-1-((2S)-2-(3-(2-(4-(2-((4-(3-(3-amino-6-(2-hydroxyphenyl)pyridazin-4-yl)-3,8-diazabicyclo[3.2.1]octan-8-yl)pyridin-2-yl)oxy)ethyl)piperazin-1-yl)ethoxy)isoxazol-5-yl)-3-methylbutanoyl)-4-hydroxy-N-((S)-1-(6-(4-methyloxazol-5-yl)pyridin-3-yl)ethyl)pyrrolidine-2-carboxamide] | > 30 nM |  | Dmax (BRM degradation, SW1573 cells, tested at the top concentration of between 0.3 and 10 μM, read-out: Dmax (%) (% degraded)): < 50%
7 | Cc1ncsc1-c1ccc(CNC(=O)[C@@H]2C[C@@H](O)CN2C(=O)[C@@H](c2cc(OCCOCCOCCOc3cc(N4C5CCC4CN(c4cc(-c6ccccc6O)nnc4N)C5)ccn3)no2)C(C)C)cc1 [compound 28, (2S,4R)-1-[(2R)-2-[3-[2-(2-[2-[(4-[3-[3-amino-6-(2-hydroxyphenyl)pyridazin-4-yl]-3,8-diazabicyclo[3.2.1]octan-8-yl]pyridin-2-yl)oxy]ethoxy]ethoxy)ethoxy]-1,2-oxazol-5-yl]-3-methylbutanoyl]-4-hydroxy-N-[[4-(4-methyl-1,3-thiazol-5-yl)phenyl]methyl]pyrrolidine-2-carboxamide] | < 2.5 nM |  | Dmax (BRM degradation, SW1573 cells, when tested at the top concentration of between 0.3 and 10 μM, read-out: Dmax (%) (% degraded)): > 75%
8 | Cc1ncsc1-c1ccc([C@H](C)NC(=O)[C@@H]2C[C@@H](O)CN2C(=O)[C@@H](c2cc(OCCN3CCC(C(=O)N4CC(Oc5cc(N6C7CCC6CN(c6cc(-c8ccccc8O)nnc6N)C7)ccn5)C4)CC3)no2)C(C)C)cc1 [compound 405, (2S,4R)-1-((2R)-2-(3-(2-(4-(3-((4-(3-(3-amino-6-(2-hydroxyphenyl)pyridazin-4-yl)-3,8-diazabicyclo[3.2.1]octan-8-yl)pyridin-2-yl)oxy)azetidine-1-carbonyl)piperidin-1-yl)ethoxy)isoxazol-5-yl)-3-methylbutanoyl)-4-hydroxy-N-((S)-1-(4-(4-methylthiazol-5-yl)phenyl)ethyl)pyrrolidine-2-carboxamide] |  | > 75% | DC50 [3]: < 2.5 nM
9 | Cc1ncsc1-c1ccc([C@H](C)NC(=O)[C@@H]2C[C@@H](O)CN2C(=O)[C@@H](c2cc(OCCN3CCC(O[C@H]4C[C@H](Oc5cc(N6C7CCC6CN(c6cc(-c8ccccc8O)nnc6N)C7)ccn5)C4)CC3)no2)C(C)C)nc1 [compound 368, (2S,4R)-1-((2R)-2-(3-(2-(4-((1r,3R)-3-((4-(3-(3-amino-6-(2-hydroxyphenyl)pyridazin-4-yl)-3,8-diazabicyclo[3.2.1]octan-8-yl)pyridin-2-yl)oxy)cyclobutoxy)piperidin-1-yl)ethoxy)isoxazol-5-yl)-3-methylbutanoyl)-4-hydroxy-N-((S)-1-(5-(4-methylthiazol-5-yl)pyridin-2-yl)ethyl)pyrrolidine-2-carboxamide] |  | > 75% | DC50 (target protein degradation, read-out: BRM DC50): < 2.5 nM
10 | Cc1ncsc1-c1ccc([C@H](C)NC(=O)[C@@H]2C[C@@H](O)CN2C(=O)[C@@H](c2cc(OCCN3CCC(O[C@H]4C[C@H](Nc5cc(N6C7CCC6CN(c6cc(-c8ccccc8O)nnc6N)C7)ccn5)C4)CC3)no2)C(C)C)cc1 [compound 493, (2S,4R)-1-((2R)-2-(3-(2-(4-((1r,3R)-3-((4-(3-(3-amino-6-(2-hydroxyphenyl)pyridazin-4-yl)-3,8-diazabicyclo[3.2.1]octan-8-yl)pyridin-2-yl)amino)cyclobutoxy)piperidin-1-yl)ethoxy)isoxazol-5-yl)-3-methylbutanoyl)-4-hydroxy-N-((S)-1-(4-(4-methylthiazol-5-yl)phenyl)ethyl)pyrrolidine-2-carboxamide] |  | > 75% | DC50 [4]: < 2.5 nM
